Experimental data taken from patent US4767765A, “N-substituted-N-[3-(1,2,4-triazolo-[4,3-b]pyridazin-6-yl )phenyl]alkanamides, carbamates and ureas” (American Cyanamid Company, priority 1987, dated 1988).

How the values were obtained:
[1] = tested on: Nonconditioned Passive Avoidance in Rats; assay: Nonconditioned passive avoidance test in rats (conflict procedure); type: in vivo, rat (Wistar); parameters: key: Active: considered active if the number of shocks received by the test group is significantly higher than the control group by the Mann-Witney U test; conditions: oral or i.p., 30 or 60 minutes
Method: Another test which has been used to assess anti-anxiety effects is a non-conditioned passive avoidance procedure described by J. R. Vogel, B. Beer and D. E. Clody, "A Simple and Reliable Conflict Procedure for Testing Anti-anxiety Agents", Psychopharmacologia, 21, 1-7 (1971). A conflict situation is induced in rats by a modification of this method.
Groups of 6 naive, Wistar strain rats, weighing 200-240 g each were deprived of water for 48 hours and food for 24 hours. The test compounds were administered in single or graded, oral or intraperitoneal doses, suspended in a 2% starch vehicle containing 0.5% v/v polyethylene glycol and one drop of polysorbate 80. Control animals received the vehicle alone. At 30 or 60 minutes each rat was placed in an individual plexiglass chamber. Water was available ad libitum from a tap located in the rear of the chamber. A 0.7 milliampere DC shocking current was established between the stainless steel grid floor and the tap. After 20 licks of non-shocked drinking, a shock was delivered for 2 seconds and then further shocks were delivered on a ratio of one shock for 2 seconds for every 20 licks. This was continued for a total of 3 minutes. The number of shocks taken by each rat during the 3 minute interval was recorded and compared to a control group. […]

[2] = tested on: Clonic Seizures Caused by Pentylenetetrazole in Rats; assay: Protection against clonic seizures caused by pentylenetetrazole in rats; type: in vivo; conditions: Rattus norvegicus, oral or i.p., pentylenetetrazole 23 mg/kg i.v. at 30 or 60 minutes, read-out: % of Rats Protected
Method: The antianxiety and anticonvulsant properties of the novel compounds of the present invention were established in a test which indicates both anxiolytic and antiepileptic activity by the measure of protection from convulsions resulting from the administration of pentylenetetrazole. Single or graded dose levels of the test compounds were administered orally or intraperitoneally in a 2% starch vehicle, containing 0.5% v/v polyethylene glycol and one drop of Polysorbate 80 to groups of at least 4 rats. At 30 or 60 minutes, the rats were treated intravenously with pentylenetetrazole at a dose of 23 mg/kg of body wieght. This dose is estimated to cause clonic seizures in 99% of unprotected rats. It has been reported [R. T. Hill and D. H. Tedeschi, "Animal Testing and Screening Procedures in Evaluating Psychotropic Drugs" in An Introduction to Psychopharmacology, Eds. R. R. Rech and K. E. Moore, Raven Press, New York, pp 237-288 (1971,] that there is a high degree of correlation between antagonism of pentylenetetrazole seizures in rats and antianxiety and anticonvulsant effects in higher warm-blooded animals. The results of this test on representative compounds of this invention are shown in Table I.

[3] = tested on: Brain-Specific Receptors of Rats; assay: Inhibition of the binding of 3H-benzodiazepine to brain-specific receptors of rats; parameters: species or system rat (Wistar); conditions: 3H-diazepam 1.5 nM or 3H-flunitrazepam 1.0 nM; rat cortex P2 fraction, pH 7.4, 30 minutes in ice; test concentration not given

CCN(C(=O)OC)c1cccc(-c2ccc3nncn3n2)c1 [Ethyl[3-(1,2,4-triazolo[4,3-b]pyridazin-6-yl)phenyl]carbamic acid, methyl ester]
Results (nonconditioned passive avoidance) ([1]; dose 25 mg/kg): Active
responders at 25 mg/kg [2]: 100%
% Inhibition [3]: 78%

CCN(C(=O)OC)c1cccc(-c2ccc3nnc(C)n3n2)c1 [Ethyl[3-(3-methyl-1,2,4-triazolo[4,3-b]pyridazin-6-yl)phenyl]carbamic acid, methyl ester]
Results (nonconditioned passive avoidance) ([1]; dose 1.5 mg/kg): Active
responders at 3.1 mg/kg [2]: 75%
% Inhibition [3]: 60%

COC(=O)N(C)c1cccc(-c2ccc3nncn3n2)c1 [Methyl-[3-(1,2,4-triazolo[4,3-b]pyridazin 6-yl)phenyl]carbamic acid, methyl ester]
responders at 25 mg/kg [2]: 25%
% Inhibition [3]: 62%

COC(=O)N(C)c1cccc(-c2ccc3nnc(C)n3n2)c1 [Methyl[3-(3-methyl-1,2,4-triazolo[4,3-b]pyridazin-6-yl)phenyl]carbamic acid, methyl ester]
Results (nonconditioned passive avoidance) ([1]; dose 3.1 mg/kg): Active
responders at 25 mg/kg [2]: 100%
% Inhibition [3]: 62%

Cc1nnc2ccc(-c3cccc(N(C)C(=O)N(C)C)c3)nn12 [N,N,N'-Trimethyl-N'-[3-(3-methyl-1,2,4-triazolo[4,3-b]pyridazin-6-yl)phenyl]urea]
Results (nonconditioned passive avoidance) ([1]; dose 25 mg/kg): Active
responders at 25 mg/kg [2]: 50%

Cc1nnc2ccc(-c3cccc(NC(=O)N(C)C)c3)nn12 [N,N-Dimethyl-N'-[3-(3-methyl-1,2,4-triazolo[4,3-b]pyridazin-6-yl)phenyl]urea]
% Inhibition [3]: 10%

C=CCN(C(C)=O)c1cccc(-c2ccc3nncn3n2)c1 [N-2-Propenyl-N-[3-(1,2,4-triazolo[4,3-b]pyridazin-6-yl)phenyl]acetamide]
% Inhibition [3]: 68%

C#CCN(C(C)=O)c1cccc(-c2ccc3nncn3n2)c1 [N-2-Propynyl-N-[3-(1,2,4-triazolo[4,3-b]pyridazin-6-yl)phenyl]acetamide]
% Inhibition [3]: 49%

CC(=O)N(CC1CC1)c1cccc(-c2ccc3nnc(C)n3n2)c1 [N-(Cyclopropylmethyl)-N-[3-(3-methyl-1,2,4-triazolo[4,3-b]pyridazin-6-yl)phenyl]acetamide]
Results (nonconditioned passive avoidance) ([1]; dose 6.2 mg/kg): Active
responders at 12.5 mg/kg [2]: 75%
% Inhibition [3]: 93%

CCN(C(=O)N(C)C)c1cccc(-c2ccc3nnc(C)n3n2)c1 [N-Ethyl-N',N'-dimethyl-N-[(3-methyl-1,2,4-triazolo[4,3-b]pyridazin-6-yl)phenyl]urea]
Results (nonconditioned passive avoidance) ([1]; dose 3.1 mg/kg): Active
responders at 12.5 mg/kg [2]: 75%

CCN(C(C)=O)c1cccc(-c2ccc3nncn3n2)c1 [N-Ethyl-N-[3-(1,2,4-triazolo[4,3-b]pyridazin-6-yl)phenyl]acetamide]
Results (nonconditioned passive avoidance) ([1]; dose 12.5 mg/kg): Active
responders at 25 mg/kg [2]: 100%
% Inhibition [3]: 78%

CCC(=O)N(CC)c1cccc(-c2ccc3nncn3n2)c1 [N-Ethyl-N-[3-(1,2,4-triazolo[4,3-b]pyridazin-6-yl)phenyl]propanamide]
Results (nonconditioned passive avoidance) ([1]; dose 3.1 mg/kg): Active
responders at 3.1 mg/kg [2]: 50%
% Inhibition [3]: 84%

CCN(C(C)=O)c1cccc(-c2ccc3nnc(N)n3n2)c1 [N-Ethyl-N-[3-(3-amino-1,2,4-triazolo[4,3-b]pyridazin-6-yl)phenyl]acetamide]
% Inhibition [3]: 90%

CCN(C(C)=O)c1cccc(-c2ccc3nnc(C)n3n2)c1 [N-Ethyl-N-[3-(3-methyl-1,2,4-triazolo[4,3-b]pyridazin-6-yl)phenyl]acetamide]
Results (nonconditioned passive avoidance) ([1]; dose 0.8 mg/kg): Active
responders at 12.5 mg/kg [2]: 100%
% Inhibition [3]: 90%

CCC(=O)N(CC)c1cccc(-c2ccc3nnc(C)n3n2)c1 [N-Ethyl-N-[3-(3-methyl-1,2,4-triazolo[4,3-b]pyridazin-6-yl)phenyl]propanamide]
Results (nonconditioned passive avoidance) ([1]; dose 3.1 mg/kg): Active
responders at 3.1 mg/kg [2]: 75%
% Inhibition [3]: 95%

CC(=O)N(C)c1cccc(-c2ccc3nncn3n2)c1 [N-Methyl-N-[3-(1,2,4-triazolo[4,3-b]pyridazin-6-yl)phenyl]acetamide]
Results (nonconditioned passive avoidance) ([1]; dose 12.5 mg/kg): Active
responders at 25 mg/kg [2]: 50%
% Inhibition [3]: 45%

CCC(=O)N(C)c1cccc(-c2ccc3nncn3n2)c1 [N-Methyl-N-[3-(1,2,4-triazolo[4,3-b]pyridazin-6-yl)phenyl]propanamide]
Results (nonconditioned passive avoidance) ([1]; dose 25 mg/kg): Active
responders at 25 mg/kg [2]: 100%
% Inhibition [3]: 56%

CC(=O)N(C)c1cccc(-c2ccc3nnc(N)n3n2)c1 [N-Methyl-N-[3-(3-amino-1,2,4-triazolo[4,3-b]pyridazin-6-yl)phenyl]acetamide]
% Inhibition [3]: 58%

CC(=O)N(C)c1cccc(-c2ccc3nnc(C)n3n2)c1 [N-Methyl-N-[3-(3-methyl-1,2,4-triazolo[4,3-b]pyridazin-6-yl)phenyl]acetamid]
Results (nonconditioned passive avoidance) ([1]; dose 3.1 mg/kg): Active
responders at 6 mg/kg ([2]; dose 6.0 mg/kg): 100%
% Inhibition [3]: 89%

CCC(=O)N(C)c1cccc(-c2ccc3nnc(C)n3n2)c1 [N-Methyl-N-[3-(3-methyl-1,2,4-triazolo[4,3-b]pyridazin-6-yl)phenyl]propanamide]
Results (nonconditioned passive avoidance) ([1]; dose 3.1 mg/kg): Active
responders at 12.5 mg/kg [2]: 25%
% Inhibition [3]: 89%

C=CCN(C(C)=O)c1cccc(-c2ccc3nnc(C)n3n2)c1 [N-[3-(3-Methyl-1,2,4-triazolo[4,3-b]pyridazin-6-yl)phenyl]-N-2-propenylacetamide]
Results (nonconditioned passive avoidance) ([1]; dose 25 mg/kg): Active
responders at 6.25 mg/kg ([2]; dose 6.25 mg/kg): 100%
% Inhibition [3]: 96%

CCCN(C(C)=O)c1cccc(-c2ccc3nnc(C)n3n2)c1 [N-[3-(3-Methyl-1,2,4-triazolo[4,3-b]pyridazin-6-yl)phenyl]-N-propylacetamide]
% Inhibition [3]: 93%

CCC(=O)Nc1cccc(-c2ccc3nnc(C)n3n2)c1 [N-[3-(3-Methyl-1,2,4-triazolo[4,3-b]pyridazin-6-yl)phenyl]propanamide]
% Inhibition [3]: 56%

C#CCN(C(C)=O)c1cccc(-c2ccc3nnc(C)n3n2)c1 [N-[3-(3-Methyl-1,2,4-triazolo[4,3b]pyridazin-6-yl)phenyl]-N-2-propynylacetamide]
Results (nonconditioned passive avoidance) ([1]; dose 1.5 mg/kg): Active
responders at 3.1 mg/kg [2]: 100%
% Inhibition [3]: 90%

COC(=O)Nc1cccc(-c2ccc3nncn3n2)c1 [[3-(1,2,4-Triazolo[4,3-b]pyridazin-6-yl)phenyl]carbamic acid, methyl ester]
% Inhibition [3]: 18%

COC(=O)Nc1cccc(-c2ccc3nnc(C)n3n2)c1 [[3-(3-Methyl-1,2,4-triazolo[4,3-b]pyridazin-6-yl)phenyl]carbamic acid, methyl ester]
Results (nonconditioned passive avoidance) ([1]; dose 25 mg/kg): Active
% Inhibition [3]: 18%
